This is an account of results in ChEMBL document CHEMBL5357059, “Arenarialins A-F, Anti-inflammatory Meroterpenoids with Rearranged Skeletons from the Marine Sponge Dysidea arenaria” (J Nat Prod, 2024).

In data set [1] the test system is RAW264.7. The data set can be described thus: Cytotoxicity against mouse RAW264.7 cells assessed as reduction in cell viability at 2.5 to 20 uM incubated for 24 hrs by CCK-8 assay. It is filed as toxicity, cell-based. To be noted: raw264.7, 24 h, dose 2.5-20 µM. In general terms: Formazan colour is commonly taken as a measure of viable cells.
Data set [2] concerns RAW264.7. The data set can be described thus: Antiinflammatory activity in LPS-induced mouse RAW264.7 cells assessed as inhibition of IL-6 production pretreated for 1 hr followed by LPS stimulation and measured after 3 hrs by ELISA. It is filed as functional, cell-based. To be noted: dose 2.5-20 µM, time 4.0 hrs. In general terms: In an ELISA, binding on a coated surface is turned into a signal by an enzyme label.

In data set [3] the test system is RAW264.7. The data set can be described thus: Antiinflammatory activity in LPS-induced mouse RAW264.7 cells assessed as inhibition of TNFalpha production at 5 to 20 uM pretreated for 1 hr followed by LPS stimulation and measured after 3 hrs by ELISA. It is filed as functional, cell-based. To be noted: dose 5-20 µM, time 4.0 hrs.
In data set [4] the target is T1, NF-kappa-B inhibitor alpha (Mus musculus) (UniProt Q9Z1E3).
T1 sequence (whole entry): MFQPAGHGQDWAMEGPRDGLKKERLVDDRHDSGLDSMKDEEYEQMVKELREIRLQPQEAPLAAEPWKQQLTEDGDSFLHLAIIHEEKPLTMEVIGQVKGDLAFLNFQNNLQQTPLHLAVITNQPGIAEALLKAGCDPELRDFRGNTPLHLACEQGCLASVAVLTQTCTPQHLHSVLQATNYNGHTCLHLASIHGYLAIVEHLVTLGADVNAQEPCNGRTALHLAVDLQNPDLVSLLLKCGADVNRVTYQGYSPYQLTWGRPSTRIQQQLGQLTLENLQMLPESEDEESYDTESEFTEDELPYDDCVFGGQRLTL
The experiment in a line: Inhibition of IkappaBalpha phosphorylation at Ser32 residue in LPS-induced mouse RAW264.7 cells at 5 uM pretreated for 2 hrs followed by LPS stimulation and measured after 25 mins by Western blot analysis. It is filed as cell-based. As to conditions: time 145.0 min.

Data set [5] deals with c-Jun N-terminal kinase (Mus musculus) (UniProt Q91Y86+Q9WTU6+Q61831). The data set can be described thus: Inhibition of LPS-induced JNK phosphorylation in mouse RAW264.7 cells assessed as reduction in p-JNK protein expression at 2.5 to 5 uM pretreated for 2 hrs followed by LPS stimulation and measured after 25 mins by Western blot analysis. As to conditions: dose 2.5-5 µM, time 145.0 min. It is filed as cell-based. In general terms: A western blot detects proteins with antibodies after separation by electrophoresis.

Data set [6] deals with Mitogen-activated protein kinase 1 and 3 (ERK2 and ERK1) (Mus musculus) (UniProt P63085+Q63844). The data set can be described thus: Inhibition of LPS-induced ERK1/2 phosphorylation in mouse RAW264.7 cells assessed as reduction in p-ERK1/2 protein expression at 2.5 to 5 uM pretreated for 2 hrs followed by LPS stimulation and measured after 25 mins by Western blot analysis. It is filed as cell-based. To be noted: dose 2.5-5 µM, time 145.0 min.

Data set [7] has as its system RAW264.7. The data set can be described thus: Effect on COX-2 protein expression in LPS-induced mouse RAW264.7 cells at 5 uM pretreated for 2 hrs followed by LPS stimulation and measured after 25 mins by Western blot analysis. As to conditions: time 145.0 min. It is filed as functional, cell-based.
The target in data set [8] is Transcription factor p65 (Mus musculus) (UniProt Q04207). The experiment in a line: Inhibition of NFkappaB p65 phosphorylation at Ser536 residue in LPS-induced mouse RAW264.7 cells assessed as downregulation of p-NFkappaB p65 protein expression at 5 uM pretreated for 2 hrs followed by LPS stimulation and measured after 25 mins by Western blot analysis. It is filed as cell-based. As to conditions: time 145.0 min.

Data set [9] relates to RAW264.7. The experiment in a line: Inhibition of LPS-induced p38 phosphorylation in mouse RAW264.7 cells assessed as reduction in p-p38 protein expression at 2.5 to 5 uM pretreated for 2 hrs followed by LPS stimulation and measured after 25 mins by Western blot analysis. It is filed as cell-based. As to conditions: dose 2.5-5 µM, time 145.0 min.

Each structure is given as a SMILES string. Calls of active or inactive are those of the source. The calls are words filed in the database; no cut-off is given here.

Chain of Mitogen-activated protein kinase 1 and 3 (ERK2 and ERK1) (Mus musculus) (P63085 whole entry, looked up): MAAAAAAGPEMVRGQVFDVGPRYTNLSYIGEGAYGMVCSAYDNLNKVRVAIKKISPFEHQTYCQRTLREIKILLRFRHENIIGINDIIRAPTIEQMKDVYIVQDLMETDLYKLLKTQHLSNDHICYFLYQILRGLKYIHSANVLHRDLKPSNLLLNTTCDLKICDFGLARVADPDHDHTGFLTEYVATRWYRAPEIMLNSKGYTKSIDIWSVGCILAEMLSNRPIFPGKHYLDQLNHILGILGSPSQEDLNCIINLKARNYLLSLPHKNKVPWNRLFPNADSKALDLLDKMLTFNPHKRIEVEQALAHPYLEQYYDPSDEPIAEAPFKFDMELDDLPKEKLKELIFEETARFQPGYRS
Chain of Mitogen-activated protein kinase 1 and 3 (ERK2 and ERK1) (Mus musculus) (Q63844 whole entry, looked up): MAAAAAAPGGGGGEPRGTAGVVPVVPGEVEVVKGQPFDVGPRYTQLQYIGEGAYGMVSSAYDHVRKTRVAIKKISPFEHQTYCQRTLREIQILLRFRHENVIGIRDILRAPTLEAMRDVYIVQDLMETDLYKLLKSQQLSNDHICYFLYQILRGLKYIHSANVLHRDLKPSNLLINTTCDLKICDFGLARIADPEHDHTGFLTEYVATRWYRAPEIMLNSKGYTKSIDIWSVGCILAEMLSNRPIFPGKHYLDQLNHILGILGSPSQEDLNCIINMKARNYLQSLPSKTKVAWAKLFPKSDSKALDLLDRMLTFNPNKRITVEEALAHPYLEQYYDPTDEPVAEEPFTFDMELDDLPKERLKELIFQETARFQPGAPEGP
Chain of c-Jun N-terminal kinase (Mus musculus) (Q61831 whole entry, looked up): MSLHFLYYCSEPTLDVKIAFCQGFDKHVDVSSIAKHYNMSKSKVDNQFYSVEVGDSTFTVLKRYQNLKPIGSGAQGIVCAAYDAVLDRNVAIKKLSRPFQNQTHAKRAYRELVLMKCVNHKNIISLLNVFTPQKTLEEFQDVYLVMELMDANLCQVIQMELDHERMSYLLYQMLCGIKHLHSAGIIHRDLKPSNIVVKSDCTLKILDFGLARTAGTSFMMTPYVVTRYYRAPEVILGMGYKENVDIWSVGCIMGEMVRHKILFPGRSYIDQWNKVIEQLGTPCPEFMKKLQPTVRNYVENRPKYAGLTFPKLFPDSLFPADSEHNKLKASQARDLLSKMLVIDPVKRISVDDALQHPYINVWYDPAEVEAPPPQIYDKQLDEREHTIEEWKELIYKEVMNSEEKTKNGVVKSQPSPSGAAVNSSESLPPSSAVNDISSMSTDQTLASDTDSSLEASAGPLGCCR
Chain of c-Jun N-terminal kinase (Mus musculus) (Q91Y86 whole entry, looked up): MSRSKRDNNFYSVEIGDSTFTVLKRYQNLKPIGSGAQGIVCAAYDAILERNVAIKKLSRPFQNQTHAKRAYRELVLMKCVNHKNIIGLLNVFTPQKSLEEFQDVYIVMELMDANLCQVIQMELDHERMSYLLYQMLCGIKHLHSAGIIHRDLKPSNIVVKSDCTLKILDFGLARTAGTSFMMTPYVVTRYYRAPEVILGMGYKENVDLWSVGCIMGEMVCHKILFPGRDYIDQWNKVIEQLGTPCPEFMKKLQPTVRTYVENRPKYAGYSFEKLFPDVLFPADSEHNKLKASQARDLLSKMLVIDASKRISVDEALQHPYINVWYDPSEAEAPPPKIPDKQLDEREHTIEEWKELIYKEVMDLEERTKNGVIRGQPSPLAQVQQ
Chain of c-Jun N-terminal kinase (Mus musculus) (Q9WTU6 whole entry, looked up): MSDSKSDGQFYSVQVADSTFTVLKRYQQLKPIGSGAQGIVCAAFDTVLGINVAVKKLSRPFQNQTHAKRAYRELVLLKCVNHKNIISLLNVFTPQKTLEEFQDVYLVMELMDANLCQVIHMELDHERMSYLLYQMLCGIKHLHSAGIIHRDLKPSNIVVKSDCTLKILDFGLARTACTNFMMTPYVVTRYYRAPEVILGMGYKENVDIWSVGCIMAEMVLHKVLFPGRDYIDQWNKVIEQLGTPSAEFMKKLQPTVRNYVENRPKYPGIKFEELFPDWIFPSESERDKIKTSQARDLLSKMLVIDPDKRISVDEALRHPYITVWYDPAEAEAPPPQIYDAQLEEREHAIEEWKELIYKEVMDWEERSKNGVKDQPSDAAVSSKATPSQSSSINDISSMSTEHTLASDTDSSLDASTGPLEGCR
Chain of Transcription factor p65 (Mus musculus) (Q04207 whole entry): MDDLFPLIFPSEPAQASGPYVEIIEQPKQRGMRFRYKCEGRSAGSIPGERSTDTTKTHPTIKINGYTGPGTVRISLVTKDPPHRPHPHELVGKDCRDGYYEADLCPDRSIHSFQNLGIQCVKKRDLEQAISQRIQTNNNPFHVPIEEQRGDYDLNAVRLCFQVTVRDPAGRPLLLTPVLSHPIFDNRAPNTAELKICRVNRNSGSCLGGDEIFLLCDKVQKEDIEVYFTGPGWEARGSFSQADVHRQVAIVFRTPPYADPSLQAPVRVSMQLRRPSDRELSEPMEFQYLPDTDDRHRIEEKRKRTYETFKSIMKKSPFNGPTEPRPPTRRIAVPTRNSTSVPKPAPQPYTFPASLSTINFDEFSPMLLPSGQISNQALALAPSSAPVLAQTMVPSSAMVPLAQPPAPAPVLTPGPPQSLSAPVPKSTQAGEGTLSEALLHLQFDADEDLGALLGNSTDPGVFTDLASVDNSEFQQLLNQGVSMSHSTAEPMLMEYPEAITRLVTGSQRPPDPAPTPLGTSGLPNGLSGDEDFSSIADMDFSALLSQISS

Turning to `C[C@H]1CC[C@]2(C)[C@@H](C)OC(=O)C[C@]23c2c(O)ccc(O)c2C[C@]13C`, the Activity result in the data set on RAW264.7 [1] is reported as “Non-Toxic”.

As to `C=C1[C@H](O)C[C@@H]2Oc3ccc(O)cc3C[C@]3(C)[C@@H](C)CC[C@@]1(C)[C@@H]23`, the values for the Activity entry in the data set on RAW264.7 [1] and with RAW264.7 [2] were “Non-Toxic” and “Dose-Dependent Effect”, respectively.

Consider `CC1=CC(=O)[C@@H]2Oc3ccc(O)cc3C[C@]3(C)[C@@H](C)CC[C@@]1(C)[C@@H]23`, for which the Activity result in the data set on RAW264.7 [1] is “Non-Toxic”; with RAW264.7 [2] it was “Dose-Dependent Effect”. The outcome in the data set on RAW264.7 [3] was Active.

With `CCOC1=CC(=O)C2=C(C1=O)[C@@H]1C[C@]3(C)C(C)=CCCC3=C(C)[C@]1(C)C2`, in the data set with RAW264.7 [1], the Activity entry was “Non-Toxic”. In addition, the outcome in the data set on RAW264.7 [3] was Active.

Turning to `C[C@@H]1CC[C@@]2(C)OC(=O)[C@H]3Oc4ccc(O)cc4C[C@]1(C)[C@@H]32`, the inhibition entry in data set [4] was “inactive”. In addition, the Activity entry was “Non-Toxic” in the data set on RAW264.7 [1] and “Dose-Dependent Effect” in the data set with RAW264.7 [2]. In addition, the inhibition result (in data set [5]; in data set [6]; in [8]; with RAW264.7 [9]) was “Active” each time. Also, the result in the data set with RAW264.7 [7] was inactive. In addition, the outcome with RAW264.7 [3] was Active.

Consider `C[C@H]1CC[C@@]2(C)[C@]34CC(=O)C[C@]2(C)Oc2ccc(O)c(c23)C[C@]14C`, for which the Activity entry was “Non-Toxic” in the data set with RAW264.7 [1] and “Dose-Dependent Effect” in the data set on RAW264.7 [2]. Further, the outcome with RAW264.7 [3] was Active.
